Consider 40 molecules from US8088806B2 (Achillion Pharmaceuticals, Inc., priority 2005, dated 2012).

The structures appear in SMILES notation.

For one assay, the system named is HCV replicon. Put plainly: Replicon based assay of HCV replication inhibition (NPT ELISA). Conditions: Hepatitis C virus, Huh-7, 72 h, Table I; Huh-7 HCV replicon-containing cells, three days; read-out: Activity. It is filed as cell-based, Hepatitis C virus. An outline of the steps: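 Huh-7 cells carrying a bicistronic HCV replicon (neo, EMCV-IRES-driven NS3–NS5B) treated overnight after seeding with usually 6 concentrations, 10 to 0.03 micromolar, for three days at 37° C without G418. Replication read as NPT level by captured ELISA; matched-DMSO wells and interferon alpha as controls.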
On the technique in general: In antiviral work, replicon cells carry a viral genome segment that copies itself.
In the case of `CCOC(=O)Cc1ccc(Nc2nc(-c3cccnc3)cs2)cc1` [compound 109, ethyl 2-(4-(4-(pyridin-3-yl)thiazol-2-ylamino)phenyl)acetate], the EC50 was above 10 µM. Turning to `CCCc1ccc(Nc2nc(-c3cccnc3)cs2)cc1` [compound 110, N-(4-propylphenyl)-4-(pyridin-3-yl)thiazol-2-amine], the EC50 is above 10 µM. As for `Clc1ccc(-c2csc(Nc3cccc(OCc4ccccc4)c3)n2)cc1Cl` [compound 28, N-(3-(benzyloxy)phenyl)-4-(3,4-dichlorophenyl)thiazol-2-amine], the EC50 was below 1 µM. Take `O=C(Nc1ccc(Cl)c(Cl)c1)c1nc(-c2cccnc2)cs1` [compound 123, N-(3,4-dichlorophenyl)-4-(pyridin-3-yl)thiazole-2-carboxamide]: the EC50 is above 10 µM. Same read-out and setting: next, `Fc1ccc(Nc2nc(C(F)(F)F)c(-c3cccc(Cl)c3)s2)cc1` [compound 118, 5-(3-chlorophenyl)-4-(trifluoromethyl)-N-(4-fluorophenyl)thiazol-2-amine]: above 10 µM; `CCCCCOc1ccc(Nc2ncc(C(=O)O)s2)cc1C(F)(F)F` [compound 148, 2-(3-(trifluoromethyl)-4-(pentyloxy)phenylamino)thiazole-5-carboxylic acid]: above 10 µM; `CCCCCOc1ccc(Nc2nc(CN(C)C)cs2)cc1C(F)(F)F` [compound 172, 4-((dimethylamino)methyl)-N-(3-(trifluoromethyl)-4-(pentyloxy)phenyl)thiazol-2-amine]: below 1 µM. Consider `Fc1ccc(-c2csc(Nc3ccc(OC(F)(F)F)cc3)n2)c(F)c1` [compound 45, 4-(2,4-difluorophenyl)-N-(4-(trifluoromethoxy)phenyl)thiazol-2-amine], for which the EC50 was above 10 µM.

Consider `CCCCCOc1ccc(N(C)c2nc(-c3cccnc3)cs2)cc1C(F)(F)F` [compound 157, N-(3-(trifluoromethyl)-4-(pentyloxy)phenyl)-N-methyl-4-(pyridin-3-yl)thiazol-2-amine], for which the EC50 is below 1 µM. In the case of `CCCCCOc1ccc(Nc2ncc(C(=O)OC)s2)cc1C(F)(F)F` [compound 130, methyl 2-(3-(trifluoromethyl)-4-(pentyloxy)phenylamino)thiazole-5-carboxylate], the EC50 was above 10 µM. Regarding `Cc1c(-c2csc(Nc3ccccc3)n2)sc2ncnn12` [compound 168, 4-(6-methylthiazolo[3,2-b][1,2,4]triazol-5-yl)-N-phenylthiazol-2-amine], the EC50 was 1 to 10 µM.

The assay is the same for the next values; noted with them: Hepatitis C virus, Huh-7, 72 h, Table III; Huh-7 HCV replicon-containing cells, three days; read-out: Activity.
In the case of `CCCCCCCCOc1ccc(Nc2nc(-c3cnc(OC)nc3OC)cs2)cc1C(F)(F)F` [compound 713, N-(3-(trifluoromethyl)-4-(octyloxy)phenyl)-4-(2,4-dimethoxypyrimidin-5-yl)thiazol-2-amine], the EC50 was below 1 µM. On the same count and under the same terms, next, `CCCCCCCCOc1ccc(Nc2nc(-c3ccc(N(C)C)nc3)cs2)cc1C(F)(F)F` [compound 541, 5-(2-(3-(trifluoromethyl)-4-(octyloxy)phenylamino)thiazol-4-yl)-N,N-dimethylpyridin-2-amine]: below 1 µM; `CCCCCCCCOc1ccc(Nc2nc(-c3ccc4[nH]c(=O)oc4c3)cs2)cc1C(F)(F)F` [compound 585, 6-(2-(3-(trifluoromethyl)-4-(octyloxy)phenylamino)thiazol-4-yl)benzo[d]oxazol-2(3H)-one]: below 1 µM. `CCCCCCCCOc1ccc(Nc2nc(-c3ccsc3)cs2)cc1C(F)(F)F` [compound 714, N-(3-(trifluoromethyl)-4-(octyloxy)phenyl)-4-(thiophen-3-yl)thiazol-2-amine]: the EC50 is below 1 µM.

Still in this assay, the particulars now being: Hepatitis C virus, replicon based assay of HCV replication inhibition; Table II; read-out: Activity.
`CCCCCCCOc1ccc(Nc2nc(-c3ccc(Cl)c(Cl)c3)cs2)cc1` [compound 421, 4-(3,4-dichlorophenyl)-N-(4-(heptyloxy)phenyl)thiazol-2-amine]: the EC50 is below 1 µM. On to `CCCCCOc1ccc(Nc2nc(C3=NN=C(N)SC3)cs2)cc1C(F)(F)F` [compound 229, 5-(2-(4-(pentyloxy)-3-(trifluoromethyl)phenyl-amino)thiazol-4-yl)-6H-1,3,4-thiazdiazin-2-amine], for which the EC50 was below 1 µM.

On to `CCCCCOc1ccc(Nc2nc(CN3CCC(CO)CC3)cs2)cc1C(F)(F)F` [compound 273, (1-((2-(4-(pentyloxy)-3-(trifluoromethyl)phenyl-amino)thiazol-4-yl)methyl)piperidin-4-yl)methanol], for which the EC50 was below 1 µM. Still for that read-out and setting: next, `CCCCCOc1ccc(Nc2nc(-c3ccc(Cl)s3)cs2)cc1C(F)(F)F` [compound 405]: below 1 µM.

As for `CCCCCCCCOc1ccc(Nc2nc(Cl)cs2)cc1` [compound 479, 4-chloro-N-(4-(octyloxy)phenyl)thiazol-2-amine], the EC50 is below 1 µM. Turning to `CCCCCCCCN(C)c1ccc(Nc2nc(Cc3cccnc3)cs2)cc1C(F)(F)F` [compound 500, 2-(trifluoromethyl)-N^1-methyl-N^1-octyl-N^4-(4-((pyridin-3-yl)methyl)thiazol-2-yl)benzene-1,4-diamine], the EC50 is below 1 µM. Turning to `CCCCCOc1ccc(Nc2nc(-c3ccncc3)cs2)cc1F` [compound 417, N-(3-fluoro-4-(pentyloxy)phenyl)-4-(pyridin-4-yl)thiazol-2-amine], the EC50 lay in the range of 1 to 10 µM.

Consider `CCCCCCCCOc1ccc(Nc2nc(-c3ccncc3)cs2)cc1` [compound 416, N-(4-(octyloxy)phenyl)-4-(pyridin-4-yl)thiazol-2-amine], for which the EC50 is below 1 µM. Take `CCCCCCCCOc1ccc(Nc2nc(-c3cccs3)cs2)cc1` [compound 360, N-(4-(octyloxy)phenyl)-4-(thiophen-2-yl)thiazol-2-amine]: the EC50 is below 1 µM. With `COc1ccc(-c2csc(Nc3ccc(OC4CCCC4)c(C(F)(F)F)c3)n2)cc1` [compound 248, N-(4-(cyclopentyloxy)-3-(trifluoromethyl)phenyl)-4-(4-methoxyphenyl)thiazol-2-amine], the EC50 is below 1 µM. On to `CCCCCCCCOc1ccc(Nc2nc(-c3ccc(F)cc3)cs2)cn1` [compound 475, N-(4-(4-fluorophenyl)thiazol-2-yl)-6-(octyloxy)pyridin-3-amine], for which the EC50 is below 1 µM. As to `CCCCCOc1ccc(Nc2nc(CN3CCC(N(C)C(=O)OC(C)(C)C)C3)cs2)cc1F` (stereo not shown) [compound 280, tert-butyl 1-((2-(3-fluoro-4-(pentyloxy)phenylamino)thia-zol-4-yl)m,ethyl)pyrrolidin-3-yl(methyl)carbamate], the EC50 lay within 1 to 10 µM.

In the case of `CCCCCOc1ccc(Nc2nc(-c3csc(-c4cccnc4)n3)cs2)cc1C(F)(F)F` [compound 298, N-(4-(pentyloxy)-3-(trifluoromethyl)phenyl)-4-(2-(pyridin-3-yl)thiazol-4-yl)thiazol-2-amine], the EC50 was below 1 µM. Still for that read-out and setting: next, `CCCCCOc1ccc(Nc2nc(-c3sc(-c4cnccn4)nc3C)cs2)cc1C(F)(F)F` [compound 414, N-(3-(trifluoromethyl)-4-(pentyloxy)phenyl)-4-(4-methyl-2-(pyrazin-2-yl)thiazol-5-yl)thiazol-2-amine]: below 1 µM.

The assay is the same for the next values; noted with them: Hepatitis C virus, replicon based assay of HCV replication inhibition; Table IV; read-out: Activity.
With `CCCCCCCCOc1ccc(Nc2nc(-c3ccsc3Cl)cs2)cc1C(F)(F)F` [compound 812, 4-(2-chlorothiophen-3-yl)-N-(3-(trifluoromethyl)-4-(octyloxy)phenyl)thiazol-2-amine], the EC50 was below 1 µM. Regarding `CCCCCCCCc1ccc(Nc2nc(-c3cccnc3)cs2)cc1C(F)(F)F` [compound 825, N-(3-(trifluoromethyl)-4-octylphenyl)-4-(pyridin-3-yl)thiazol-2-amine], the EC50 is below 1 µM.

For `Fc1ccc(Cn2ccc3ccc(Nc4nc(-c5ccc(F)cc5)cs4)cc32)cc1` [compound 868, 1-(4-fluorobenzyl)-N-(4-(4-fluorophenyl)thiazol-2-yl)-1H-indol-6-amine], the EC50 was below 1 µM. Take `COc1ccc(Nc2nc(-c3cccnc3)cs2)cc1S(=O)(=O)Nc1ccc(Cl)cc1` [compound 818]: the EC50 is above 10 µM. With `[2H]c1ccc2nc(-c3csc(Nc4ccc(OCC5CCCCC5)c(C(F)(F)F)c4)n3)ccc2n1` [compound 762, N-(4-(cyclohexylmethoxy)-3-(trifluoromethyl)phenyl)-4-(2-deuterated-1,5-naphthyridin-6-yl)thiazol-2-amine], the EC50 lay within 1 to 10 µM. As for `Fc1ccc(CCCCOc2ccc(Nc3nc(-c4cccnc4)cs3)cc2C(F)(F)F)cc1` [compound 947, N-(4-(4-(4-fluorophenyl)butoxy)-3-(trifluoromethyl)phenyl)-4-(pyridin-3-yl)thiazol-2-amine], the EC50 was below 1 µM. For the molecule `FC(F)(F)c1cc(Nc2nc(-c3cccc4cccnc34)cs2)ccc1OCC1CCCCC1` [compound 774, N-(4-(cyclohexylmethoxy)-3-(trifluoromethyl)phenyl)-4-(quinolin-8-yl)thiazol-2-amine], the EC50 was below 1 µM. In the case of `CCOC(=O)Cc1ccc(-c2csc(Nc3ccc(OCCCCc4cccs4)c(C(F)(F)F)c3)n2)s1` [compound 926, ethyl 2-(5-(2-(4-(4-(thiophen-2-yl)butoxy)-3-(trifluoromethyl)phenylamino)thiazol-4-yl)thiophen-2-yl)acetate], the EC50 lay in the range of 1 to 10 µM.

In the case of `COc1ncc(-c2csc(Nc3ccc(OCCC(C)CCCC(C)C)c(C(F)(F)F)c3)n2)cn1` (stereo not shown) [compound 776, N-(4-(3,7-dimethyloctyloxy)-3-(trifluoromethyl)phenyl)-4-(2-methoxypyrimidin-5-yl)thiazol-2-amine], the EC50 was below 1 µM. For `FC(F)(F)c1cc(Nc2nc(-c3cccnc3)cs2)ccc1Cl` [compound 881, N-(4-chloro-3-(trifluoromethyl)phenyl)-4-(pyridin-3-yl)thiazol-2-amine], the EC50 is below 1 µM.

On to `COc1ncc(-c2csc(Nc3ccc4ccn(Cc5ccc(F)cc5)c4c3)n2)cn1` [compound 866, 1-(4-fluorobenzyl)-N-(4-(2-methoxypyrimidin-5-yl)thiazol-2-yl)-1H-indol-6-amine], for which the EC50 was below 1 µM.
